Assay results published in patent publication US6458398B1, “Cold water disinfection of foods” (Eco Pure Food Safety Systems, Inc., priority 1999, dated 2002).

Legend:
[1] = tested on: Candida tropicalis; settings: in 0.30 minutes, ozone-demand free water; cited from earlier work
[2] = tested on: Naegleria gruberi; settings: in 1.1 minutes, ozone-demand free phosphate buffer solution; cited from earlier work
[3] = tested on: Escherichia coli; settings: in 19 minutes, raw waste water; cited from earlier work
[4] = tested on: bacterial spores (Bacillus subtilis v. globigii); settings: within 1.5-2 minutes, water purged with 3% ozone by weight; cited from earlier work
[5] = tested on: human immunodeficiency virus ("HIV"); settings: non-toxic concentration of 4 μg ozone per ml of serum; cited from earlier work
[6] = tested on: Escherichia coli (ATCC number 25922); experiment: cold water washing of raw cabbage inoculated with E. coli suspension; settings: 25 g raw cabbage, 10 minutes, 21° C., pH 7.5 (ozone only) or 8.5 (with FIT 0.6 g/L)
[7] = relative to chlorine; cited from earlier work
[8] = tested on: Poliovirus type I; settings: cited from earlier work

In the case of `O=[O+][O-]` [ozone], the “ozone concentration giving a 99% reduction” value [1] is listed as 0.02 mg/L, the “ozone concentration giving a 99% reduction” value [2] is listed as 1.2 mg/L and the “ozone concentration giving a 99% reduction” value [3] is listed as 2.2 mg/L. For the same compound, the “log reduction of bacterial spores” value [4] was “four”, the “log reduction in the infectious titer” value [5] was “six” and the “decrease in E. coli relative to the control” value [6] was 93%. The “rate of disinfection, times faster than chlorine” value [7] was “more than 3,000 times” and the “ozone concentration giving a 99% reduction” value [8] was 0.2 mg/L.
